Assay results as given in ChEMBL document CHEMBL1201862, “PubChem BioAssay data set” (2004).
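1) Cells in 96-well plates. 2) Compound, 48 h, 5 concentrations. 3) Linear interpolation between surrounding doses. 4) Unreached endpoint = highest concentration. GI50 marks 50% less growth.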 Calls of active or inactive are those of the source. No stated cut-off is given here; in the data, active = GI50 up to about 1.1 µM and inactive = higher.

Tests used:
Assay in all cases: growth of human tumour cells (NCI), 48 h
SNB-75 = test system: SNB-75
MCF7 = test system: MCF7
MDA-N = test system: MDA-N
HT-29 = test system: HT-29
RPMI-8226 = test system: RPMI-8226
SK-MEL-28 = test system: SK-MEL-28
CAKI-1 = test system: CAKI-1
SNB-19 = test system: SNB-19
K562 = test system: K562
HCC 2998 = test system: HCC 2998
NCI/ADR-RES = test system: NCI/ADR-RES
KM12 = test system: KM12
SF-295 = test system: SF-295
HCT-15 = test system: HCT-15
UACC-257 = test system: UACC-257
OVCAR-3 = test system: OVCAR-3
MOLT-4 = test system: MOLT-4
COLO 205 = test system: COLO 205
UACC-62 = test system: UACC-62
NCI-H226 = test system: NCI-H226

Measured: GI50

COc1ccc(Nc2c[nH]c(=O)[nH]c2=O)cc1
inactive: SNB-75 > 100 µM | MCF7 > 100 µM | MDA-N > 100 µM | HT-29 > 100 µM | RPMI-8226 > 100 µM | SK-MEL-28 > 100 µM | CAKI-1 > 100 µM | SNB-19 > 100 µM | K562 > 100 µM | HCC 2998 > 100 µM | NCI/ADR-RES > 100 µM | KM12 > 100 µM | SF-295 > 100 µM | UACC-257 > 100 µM | OVCAR-3 > 100 µM | MOLT-4 > 100 µM | COLO 205 > 100 µM | UACC-62 > 100 µM | NCI-H226 > 100 µM
> 100 µM: HCT-15

CC(=O)OCC1OC(n2c(C)cc(C)c(C#N)c2=S)C(OC(C)=O)C(OC(C)=O)C1OC(C)=O (stereo not given)
inactive: SNB-75 > 100 µM | MCF7 > 100 µM | MDA-N > 100 µM | HT-29 > 100 µM | RPMI-8226 > 100 µM | SK-MEL-28 > 100 µM | CAKI-1 > 100 µM | SNB-19 > 100 µM | K562 > 100 µM | HCC 2998 > 100 µM | NCI/ADR-RES > 100 µM | KM12 > 100 µM | SF-295 > 100 µM | UACC-257 > 100 µM | OVCAR-3 > 100 µM | MOLT-4 > 100 µM | COLO 205 > 100 µM | UACC-62 > 100 µM | NCI-H226 > 100 µM
> 100 µM: HCT-15

COC(=O)/C=c1/c2ccccc2n2c1c1ccccc1[n+]2C
13.4 µM: HCT-15
inactive: SNB-75 3.69 µM | MCF7 3.34 µM | MDA-N 3.54 µM | HT-29 3.79 µM | RPMI-8226 2.77 µM | SK-MEL-28 5.82 µM | CAKI-1 15.1 µM | SNB-19 4.88 µM | K562 3.64 µM | HCC 2998 2.35 µM | NCI/ADR-RES 31.3 µM | KM12 2.71 µM | SF-295 2.69 µM | UACC-257 2.58 µM | OVCAR-3 3.55 µM | MOLT-4 4.27 µM | COLO 205 1.26 µM | UACC-62 6.73 µM | NCI-H226 5.52 µM

CCOC(CN(C)C(=O)Nc1cccc2ccccc12)OCC
inactive: SNB-75 > 10 µM | MCF7 > 10 µM | MDA-N > 10 µM | HT-29 > 10 µM | RPMI-8226 > 10 µM | SK-MEL-28 > 10 µM | CAKI-1 > 10 µM | SNB-19 > 10 µM | K562 > 10 µM | HCC 2998 > 10 µM | NCI/ADR-RES > 10 µM | KM12 > 10 µM | SF-295 > 10 µM | UACC-257 > 10 µM | OVCAR-3 > 10 µM | MOLT-4 > 10 µM | COLO 205 > 10 µM | UACC-62 > 10 µM | NCI-H226 > 10 µM
> 10 µM: HCT-15

Cc1cccc2c1[C@]13OC(C)[C@]4(C)CC5OC(=O)[C@@]1(C)[C@@H]5[C@]34C(=O)O2 (stereo not given in full)
inactive: SNB-75 > 100 µM | MCF7 > 100 µM | MDA-N > 100 µM | HT-29 > 100 µM | RPMI-8226 > 100 µM | SK-MEL-28 > 100 µM | CAKI-1 > 100 µM | SNB-19 > 100 µM | K562 > 100 µM | HCC 2998 > 100 µM | NCI/ADR-RES > 100 µM | KM12 > 100 µM | SF-295 > 100 µM | UACC-257 > 100 µM | OVCAR-3 > 100 µM | MOLT-4 > 100 µM | COLO 205 > 100 µM | UACC-62 > 100 µM | NCI-H226 > 100 µM
> 100 µM: HCT-15
